# Measurements taken from article PMC9919699, “A Comprehensive Approach to Derivatization: Elemental Composition, Biochemical, and In Silico Studies of Metformin Derivatives Containing Copper and Zinc Complexes” (Molecules, 2023).
# Where two headings read alike, the source gives them in different places.
# Assays:
# [1] = tested on: α-amylase; experiment: α-amylase enzyme inhibition assay (starch, dinitro-salicylic acid, 540 nm); type: biochemical
# Method: All derivatives of metformin were analyzed for serum amylase inhibitory activity using the Yukihoko Hara method. Three test tubes were labeled as blank (B), test (T), and control (C). Then, 2.5 mL of phosphate buffer (pH 6.8) was added to each test tube. Next, 1 mL of starch and 1 mL of 2 N sodium chloride solution were added to each test tube. The test tubes were incubated at 37 °C for 10 min. After incubation, 0.5 mL of derivatives was added to test tube T, followed by 0.2 mL of enzyme (α-amylase). All contents were mixed well, and then the tube was incubated at 37 °C for 10 min. In the control test tube, normal saline (2 N), starch solution (1 mL), and enzyme solution (0.2 mL) were added before incubating at 37 °C for 10 min. In the blank test tube, only 5.7 mL of distilled water was added. Dinitro-salicylic acid (0.2 mL) was added to all test tubes. The contents were mixed well, and the test tubes were kept in a boiling water bath for 15 min. The intensity of reddish orange was read at 540 nm. The percentage inhibitory action of serum amylase was calculated using the following formula:Percentage inhibition = OD of control − OD of test tube/OD of control × 100.
# [2] = tested on: α-glucosidase; experiment: α-glucosidase enzyme inhibition assay (starch substrate, anthrone reagent, 640 nm); type: biochemical
# Method: The α-glucosidase-inhibitory activity of all derivatives of metformin was tested using the method previously described. Three test tubes were marked as test (T), blank (B), and control (C). Then, 200 µL of substrate (starch) and enzyme (α-glucosidase) was added to test tubes T and C. The contents were mixed well, and then the test tubes were incubated at 37 °C for 30 min. After incubation, trichloroacetic acid was added to all test tubes, which were then centrifuged for 10 min. Free glucose was available after the reaction with anthrone reagent (1.5 mL). The contents in the test tubes were boiled for 15 min, and the absorbance was read at a wavelength at 640 nm. The percentage inhibition was calculated using the following formula:Percentage inhibition = OD of control − OD of test tube/OD of control × 100.
# [3] = 250 µg/mL, Table 8 (MCu series)
# [4] = 250 µg/mL, Table 9 (MZn series)
# [5] = 500 µg/mL, Table 8 (MCu series)
# [6] = 500 µg/mL, Table 9 (MZn series)
# [7] = 1000 µg/mL, Table 8 (MCu series)
# [8] = 1000 µg/mL, Table 9 (MZn series)
# [9] = 250 µg/mL, Table 5 (MCu series)
# [10] = 250 µg/mL, Table 6 (MZn series)
# [11] = 500 µg/mL, Table 5 (MCu series)
# [12] = 500 µg/mL, Table 6 (MZn series)
# [13] = 1000 µg/mL, Table 5 (MCu series)
# [14] = 1000 µg/mL, Table 6 (MZn series)
# [15] = Table 8 (MCu series), read-out: IC50
# [16] = Table 5 (MCu series), read-out: IC50
# [17] = Table 9 (MZn series), read-out: IC50
# [18] = Table 6 (MZn series), read-out: IC50
SMILES,"% Inhibition [1, 3] [%]","% Inhibition [1, 4] [%]","% Inhibition [1, 5] [%]","% Inhibition [1, 6] [%]","% Inhibition [1, 7] [%]","% Inhibition [1, 8] [%]","% Inhibition [2, 9] [%]","% Inhibition [2, 10] [%]","% Inhibition [2, 11] [%]","% Inhibition [2, 12] [%]","% Inhibition [2, 13] [%]","% Inhibition [2, 14] [%]","IC50 [1, 15] [µM]","IC50 [2, 16] [µM]","IC50 [1, 17] [µM]",further results
"C[C@H]1O[C@H](O[C@H]2[C@H](O)[C@@H](O)[C@@H](O[C@H]3[C@H](O)[C@@H](O)C(O)O[C@@H]3CO)O[C@@H]2CO)[C@H](O)[C@@H](O)[C@@H]1N[C@H]1C=C(CO)[C@@H](O)[C@H](O)[C@H]1O (stereo partly drawn) [Acarbose, reference compound]",42.73 ± 0.46,49.59 ± 0.34,67.52 ± 0.34,72.73 ± 0.46,92.73 ± 0.46,91.71 ± 0.46,42.65 ± 0.09,54.12 ± 0.09,62.41 ± 0.28,74.52 ± 0.19,91.83 ± 0.18,98.60 ± 0.10,–,–,–,"% Inhibition ([1]; 250 µg/mL, Table 7 (Met series)): 49.65 ± 0.15%; % Inhibition ([1]; 500 µg/mL, Table 7 (Met series)): 72.33 ± 0.20%; % Inhibition ([1]; 1000 µg/mL, Table 7 (Met series)): 91.58 ± 0.36%; % Inhibition ([2]; 250 µg/mL, Table 4 (Met series)): 41.84 ± 0.08%; % Inhibition ([2]; 500 µg/mL, Table 4 (Met series)): 66.79 ± 0.09%; % Inhibition ([2]; 1000 µg/mL, Table 4 (Met series)): 89.01 ± 0.01%"
CN(C)C(=N)NC(=N)N=Cc1ccccc1.CN(C)C(=N)NC(=N)N=Cc1ccccc1.O.O.O.O.O.O=S(=O)([O-])[O-].[Cu+2] [MCu1],19.44 ± 0.46,–,43.71 ± 0.17,–,73.31 ± 0.51,–,44.24 ± 0.10,–,61.46 ± 0.31,–,81.13 ± 0.08,–,990,600,–,IC50 [2]: 421.7 µg/mL
CN(C)C(=N)NC(=N)N=Cc1ccccc1O.CN(C)C(=N)NC(=N)N=Cc1ccccc1O.O.O.O.O.O.O=S(=O)([O-])[O-].[Cu+2] [MCu2],29.52 ± 0.28,–,44.56 ± 0.34,–,77.56 ± 0.34,–,31.13 ± 0.04,–,48.50 ± 0.22,–,77.32 ± 0.17,–,790,–,–,–
CN(C)C(=N)NC(=N)N=CC=Cc1ccccc1.CN(C)C(=N)NC(=N)N=CC=Cc1ccccc1.O.O.O.O.O.O=S(=O)([O-])[O-].[Cu+2] [MCu3],25.41 ± 0.23,–,38.37 ± 0.40,–,69.40 ± 0.23,–,29.74 ± 0.08,–,49.26 ± 0.17,–,78.23 ± 0.17,–,790,570,–,–
C=NC(=N)NC(=N)N(C)C.C=NC(=N)NC(=N)N(C)C.O.O.O.O.O.O=S(=O)([O-])[O-].[Cu+2] [MCu4],19.48 ± 0.40,–,31.46 ± 0.23,–,48.32 ± 0.51,–,18.64 ± 0.07,–,31.28 ± 0.08,–,51.20 ± 0.18,–,300,500,–,–
CC(C)=NC(=N)NC(=N)N(C)C.CC(C)=NC(=N)NC(=N)N(C)C.O.O.O.O.O.O=S(=O)([O-])[O-].[Cu+2] [MCu5],12.46 ± 0.23,–,38.44 ± 0.40,–,61.38 ± 0.23,–,21.73 ± 0.12,–,38.21 ± 0.18,–,56.45 ± 0.20,–,320,460,–,–
CC(=NC(=N)NC(=N)N(C)C)c1ccccc1.CC(=NC(=N)NC(=N)N(C)C)c1ccccc1.O.O.O.O.O.O=S(=O)([O-])[O-].[Cu+2] [MCu6],23.34 ± 0.51,–,45.45 ± 0.28,–,64.65 ± 0.28,–,10.74 ± 0.11,–,24.44 ± 0.15,–,53.44 ± 0.33,–,320,290,–,–
CN(C)C(=N)NC(=N)N=C(c1ccccc1)c1ccccc1.CN(C)C(=N)NC(=N)N=C(c1ccccc1)c1ccccc1.O.O.O.O.O.O=S(=O)([O-])[O-].[Cu+2] [MCu7],15.37 ± 0.23,–,38.31 ± 0.46,–,55.43 ± 0.23,–,29.47 ± 0.18,–,37.37 ± 0.30,–,48.29 ± 0.28,–,200,320,–,–
COc1cc(C=NC(=N)NC(=N)N(C)C)ccc1O.COc1cc(C=NC(=N)NC(=N)N(C)C)ccc1O.O.O.O.O.O.O=S(=O)([O-])[O-].[Cu+2] [MCu8],42.68 ± 0.46,–,61.35 ± 0.51,–,84.35 ± 0.51,–,41.50 ± 0.26,–,67.35 ± 35,–,83.14 ± 0.09,–,900,720,–,IC50 [1]: 712.6 µg/mL
CN(C)C(=N)NC(=N)N=C(c1ccccc1)C(O)c1ccccc1.CN(C)C(=N)NC(=N)N=C(c1ccccc1)C(O)c1ccccc1.O.O.O.O.O.O=S(=O)([O-])[O-].[Cu+2] (stereo not drawn) [MCu9],13.46 ± 0.23,–,34.66 ± 0.40,–,67.48 ± 0.40,–,15.23 ± 0.12,–,28.37 ± 0.20,–,49.49 ± 0.25,–,130,200,–,–
CN(C)C(=N)NC(=N)N=Cc1ccccc1.CN(C)C(=N)NC(=N)N=Cc1ccccc1.O.O.O.O.O.O=S(=O)([O-])[O-].[Zn+2] [MZn1],–,31.46 ± 0.34,–,55.54 ± 0.34,–,82.60 ± 0.40,–,54.74 ± 0.15,–,62.48 ± 0.19,–,77.57 ± 0.20,–,–,750,"IC50 [2, 18]: 700 µM"
CN(C)C(=N)NC(=N)N=Cc1ccccc1O.CN(C)C(=N)NC(=N)N=Cc1ccccc1O.O.O.O.O.O.O=S(=O)([O-])[O-].[Zn+2] [MZn2],–,34.46 ± 0.23,–,69.32 ± 0.46,–,86.58 ± 0.40,–,43.55 ± 0.20,–,57.61 ± 0.15,–,71.37 ± 0.30,–,–,670,"IC50 [1]: 484.9 µg/mL; IC50 [2, 18]: 600 µM"
CN(C)C(=N)NC(=N)N=CC=Cc1ccccc1.CN(C)C(=N)NC(=N)N=CC=Cc1ccccc1.O.O.O.O.O.O=S(=O)([O-])[O-].[Zn+2] [MZn3],–,13.59 ± 0.34,–,41.55 ± 0.34,–,78.57 ± 0.28,–,50.22 ± 0.15,–,58.18 ± 0.21,–,68.63 ± 0.20,–,–,780,"IC50 [2, 18]: 540 µM"
C=NC(=N)NC(=N)N(C)C.C=NC(=N)NC(=N)N(C)C.O.O.O.O.O.O=S(=O)([O-])[O-].[Zn+2] [MZn4],–,15.55 ± 0.34,–,31.49 ± 0.28,–,54.44 ± 0.28,–,11.30 ± 0.15,–,13.59 ± 0.20,–,14.71 ± 0.26,–,–,500,–
CC(C)=NC(=N)NC(=N)N(C)C.CC(C)=NC(=N)NC(=N)N(C)C.O.O.O.O.O.O=S(=O)([O-])[O-].[Zn+2] [MZn5],–,15.44 ± 0.28,–,37.60 ± 0.28,–,58.35 ± 0.17,–,32.86 ± 0.15,–,38.87 ± 0.10,–,49.46 ± 0.20,–,–,560,–
CC(=NC(=N)NC(=N)N(C)C)c1ccccc1.CC(=NC(=N)NC(=N)N(C)C)c1ccccc1.O.O.O.O.O.O=S(=O)([O-])[O-].[Zn+2] [MZn6],–,18.76 ± 0.17,–,33.29 ± 0.46,–,51.47 ± 0.28,–,36.67 ± 0.26,–,41.26 ± 0.32,–,44.51 ± 0.19,–,–,540,–
CN(C)C(=N)NC(=N)N=C(c1ccccc1)c1ccccc1.CN(C)C(=N)NC(=N)N=C(c1ccccc1)c1ccccc1.O.O.O.O.O.O=S(=O)([O-])[O-].[Zn+2] [MZn7],–,24.32 ± 0.51,–,44.52 ± 0.34,–,73.43 ± 0.28,–,33.67 ± 67,–,37.61 ± 0.20,–,42.54 ± 0.26,–,–,250,–
